“And” between values parts separate entries of the source, which are not always exact repeats. Equal values may be shown once.
Tested on: BDF1 mice, Adenocarcinoma 755 s.c., tumor weight T/C
Assay: NCI In Vivo Anticancer Drug Screen. Data for tumor model Adenocarcinoma 755 (subcutaneous) in B6D2F1 (BDF1) mice
Details: endpoint: mean tumor weight, higher = larger tumour
Outline: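 Transplantable tumor implanted; mice dosed with compound or vehicle; survival or tumor size recorded; ratio of treated to vehicle control reported.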

CCCn1cnc2c(SCc3ccccc3F)nc(N)nc21
T/C (dose: 3.1 mg/kg/injection, schedule: Q01DX011 (ip), vehicle: methylcellulose (MC)): 22 % of control
T/C (dose: 6.25 mg/kg/injection, schedule: Q01DX011 (ip), vehicle: methylcellulose (MC)): 11 % of control
T/C (dose: 12.5 mg/kg/injection, schedule: Q01DX011 (ip), vehicle: methylcellulose (MC)): 1 % of control and 5 % of control

CC(C)C(Sc1nc(N)nc2nc[nH]c12)C(=O)O (stereo not given)
T/C (dose: 23.7 mg/kg/injection, schedule: Q01DX011 (ip), vehicle: carboxymethylcellulose (CMC)): 113 % of control
T/C (dose: 47.5 mg/kg/injection, schedule: Q01DX011 (ip), vehicle: carboxymethylcellulose (CMC)): 81 % of control
T/C (dose: 95.0 mg/kg/injection, schedule: Q01DX011 (ip), vehicle: carboxymethylcellulose (CMC)): 83 % of control
T/C (dose: 190.0 mg/kg/injection, schedule: Q01DX011 (ip), vehicle: carboxymethylcellulose (CMC)): 64 % of control

CN1c2ccc3ccccc3c2Sc2ccc3ccccc3c21
T/C (dose: 8.25 mg/kg/injection, schedule: Q01DX011 (ip), vehicle: carboxymethylcellulose (CMC)): 53 % of control
T/C (dose: 16.5 mg/kg/injection, schedule: Q01DX011 (ip), vehicle: carboxymethylcellulose (CMC)): 71 % of control
T/C (dose: 25.0 mg/kg/injection, schedule: Q01DX011 (ip), vehicle: carboxymethylcellulose (CMC)): 59 % of control
T/C (dose: 29.0 mg/kg/injection, schedule: Q01DX011 (ip), vehicle: carboxymethylcellulose (CMC)): 66 % of control
T/C (dose: 33.0 mg/kg/injection, schedule: Q01DX011 (ip), vehicle: carboxymethylcellulose (CMC)): 46 % of control
T/C (dose: 44.0 mg/kg/injection, schedule: Q01DX011 (ip), vehicle: carboxymethylcellulose (CMC)): 80 % of control
T/C (dose: 50.0 mg/kg/injection, schedule: Q01DX011 (ip), vehicle: carboxymethylcellulose (CMC)): 69 % of control
T/C (dose: 66.0 mg/kg/injection, schedule: Q01DX011 (ip), vehicle: carboxymethylcellulose (CMC)): 29 % of control and 39 % of control and 40 % of control
T/C (dose: 150.0 mg/kg/injection, schedule: Q01DX011 (ip), vehicle: carboxymethylcellulose (CMC)): 27 % of control
T/C (dose: 200.0 mg/kg/injection, schedule: Q01DX011 (ip), vehicle: carboxymethylcellulose (CMC)): 48 % of control
T/C (dose: 387.5 mg/kg/injection, schedule: Q01DX011 (ip), vehicle: carboxymethylcellulose (CMC)): 55 % of control

NC(=O)NOC(=O)c1ccccc1
T/C (dose: 50.0 mg/kg/injection, schedule: Q01DX011 (ip), vehicle: other): 57 % of control
T/C (dose: 50.0 mg/kg/injection, schedule: Q01DX011 (ip), vehicle: saline): 86 % of control
T/C (dose: 100.0 mg/kg/injection, schedule: Q01DX011 (ip), vehicle: other): 28 % of control
T/C (dose: 100.0 mg/kg/injection, schedule: Q01DX011 (ip), vehicle: saline): 75 % of control
T/C (dose: 200.0 mg/kg/injection, schedule: Q01DX011 (ip), vehicle: other): 21 % of control
T/C (dose: 200.0 mg/kg/injection, schedule: Q01DX011 (ip), vehicle: saline): 94 % of control
T/C (dose: 400.0 mg/kg/injection, schedule: Q01DX011 (ip), vehicle: saline): 92 % of control

CCN(CC)CCOc1ccc(/C=N/Nc2nc3c(c(=O)n(C)c(=O)n3C)n2C)cc1
T/C (dose: 30.0 mg/kg/injection, schedule: Q01DX011 (ip), vehicle: carboxymethylcellulose (CMC)): 94 % of control
T/C (dose: 60.0 mg/kg/injection, schedule: Q01DX011 (ip), vehicle: carboxymethylcellulose (CMC)): 113 % of control
T/C (dose: 240.0 mg/kg/injection, schedule: Q01DX011 (ip), vehicle: carboxymethylcellulose (CMC)): 102 % of control and 124 % of control

Nc1nc(Cl)cc(Nc2ccccc2Br)n1
T/C (dose: 15.0 mg/kg/injection, schedule: Q01DX011 (ip), vehicle: methylcellulose (MC)): 66 % of control
T/C (dose: 31.0 mg/kg/injection, schedule: Q01DX011 (ip), vehicle: methylcellulose (MC)): 87 % of control
T/C (dose: 62.0 mg/kg/injection, schedule: Q01DX011 (ip), vehicle: methylcellulose (MC)): 88 % of control
T/C (dose: 125.0 mg/kg/injection, schedule: Q01DX011 (ip), vehicle: methylcellulose (MC)): 79 % of control
T/C (dose: 250.0 mg/kg/injection, schedule: Q01DX011 (ip), vehicle: methylcellulose (MC)): 121 % of control

CCC(=O)O[C@H]1CC[C@H]2[C@@H]3CCC4=CC(=O)CC[C@]4(C)[C@H]3[C@@H](O)C[C@]12C
T/C (dose: 50.0 mg/kg/injection, schedule: Q01DX011 (sc), vehicle: steriod suspending solution): 121 % of control
T/C (dose: 200.0 mg/kg/injection, schedule: Q01DX011 (sc), vehicle: steriod suspending solution): 101 % of control

— PubChem BioAssay AID180 (DTP/NCI, 2004)
